# System: not listed separately
# Assay: Ionization constant for the compound (pKa)
# Assay type: physicochemical
row,pKa,SMILES
1,8.9,CCCC/N=C/N(C)c1ccccc1
2,10.8,N=C(N)Nc1ccccc1 [PHENYLGUANIDINE]

# Species: Homo sapiens
# Assay: Selectivity ratio, the ratio of ki for human D2 receptor to Ki for human D1 receptor
row,Ratio,SMILES
1,5,CSC1=NCCc2cc(Cl)c(O)cc2N1
2,1,Oc1cc2c(cc1Cl)CCN=C(C1CC1)N2
3,32,CC1=NCCc2cc(Cl)c(O)cc2N1c1ccsc1
4,2,Oc1cc2c(cc1Cl)CCN=C(SCc1ccccc1)N2
5,1,NC1=NCCc2cc(Cl)c(O)cc2N1
6,3,COc1ccc(/C=C/C2=NCCc3cc(Cl)c(O)cc3N2)cc1
7,42,Oc1cc2c(cc1Cl)CCN=C(c1ccccc1)N2
8,55,CC1=NCCc2cc(Cl)c(O)cc2N1c1ccc(C)cc1
9,31,CC1=NCCc2cc(Cl)c(O)cc2N1c1ccccc1C
10,3,CC1=NCCc2cc(Cl)c(O)cc2N1Cc1ccccc1
11,13,CNC1=NCCc2cc(Cl)c(O)cc2N1
12,12,Oc1cc2c(cc1Cl)CCN=C(NC1CCCCC1)N2
13,7,Oc1cc2c(cc1Cl)CCN=C(C1CCCCC1)N2
14,4,COc1ccc2cc(C3=NCCc4cc(Cl)c(O)cc4N3)ccc2c1
15,6,Oc1cc2c(cc1Cl)CCN=C(NC1CC1)N2
16,8,CN(C)c1ccc(/C=C/C2=NCCc3cc(Cl)c(O)cc3N2C2CCCCC2)cc1
17,12,Oc1cc2c(cc1Cl)CCN=C(NC1CCCC1)N2
18,36,CC1=NCCc2cc(Cl)c(O)cc2N1c1ccccc1
19,3,COc1ccc(C2CC2C2=NCCc3cc(Cl)c(O)cc3N2)cc1 (centres undefined)
20,23,CN(C)c1ccc(/C=C/C2=NCCc3cc(Cl)c(O)cc3N2c2ccccc2)cc1
21,1,Oc1cc2c(cc1Cl)CCN=C(NCCc1ccccc1)N2
22,17,CC(C)CC1=NCCc2cc(Cl)c(O)cc2N1

# Reference: ChEMBL document CHEMBL1155336, “Design and discovery of 1,3-benzodiazepines as novel dopamine antagonists” (Bioorg Med Chem Lett, 2009)
